Test results published in patent US20060069132A1, “Azolecarboxamide herbicides” (priority 2004, published 2006).
Like-named read-outs stand apart in the source and are kept apart here.

Experiments:
rice = experiment: Test B flooded paddy test; format: in vivo, Oryza sativa; settings: Oryza sativa, 336 h, 1000 g ai/ha, scale 0 to 100 (0 no effect, 100 complete control), read-out: Rice plant response rating
Procedure, shortened: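 Postemergence plants were sprayed with formulated test chemicals at 2 to 18 cm height (1- to 4-leaf stage); paddy species were grown to the 2-leaf stage. After 13 to 15 days in a greenhouse, injury was rated visually against untreated controls on a 0–100 scale (0 = no effect, 100 = complete control).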

Surinam grass = experiment: Test B pre-/postemergence herbicide test; format: in vivo, Urochloa decumbens; settings: Urochloa decumbens; for pest or weed control at 125 g/ha: 125 g ai/ha; for pest or weed control at 500 g/ha: 500 g ai/ha
Procedure, shortened: (§1)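 Response was scored visually 13 to 15 days after treatment against untreated greenhouse controls, 0 meaning no effect and 100 complete control. Formulations (solvent mixture plus surfactant) went onto soil after planting, onto foliage of 1- to 4-leaf plants, and onto 2-leaf plants in a flooded paddy set including rice and barnyardgrass.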

velvetleaf = experiment: Test B pre-/postemergence herbicide test; format: in vivo, Abutilon theophrasti; settings: Abutilon theophrasti, 336 h; for pest or weed control at 125 g/ha: 125 g ai/ha; for pest or weed control at 500 g/ha: 500 g ai/ha
Procedure, shortened: as §1

barnyardgrass [1] = experiment: Test B flooded paddy test; format: in vivo, Echinochloa crus-galli; settings: Echinochloa crus-galli, 336 h, 1000 g ai/ha, scale 0 to 100 (0 no effect, 100 complete control), read-out: Barnyardgrass plant response rating
Procedure, shortened: (§2)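 Read-out: visual comparison with controls, scored 0 to 100, where 100 means complete control and 0 no effect. Formulated chemicals were applied postemergence to plants 2–18 cm tall (1- to 4-leaf), or to flooded-paddy plants at the 2-leaf stage, then held 13 to 15 days under glass.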

morningglory = experiment: Test B pre-/postemergence herbicide test; format: in vivo, Ipomoea coccinea; settings: Ipomoea, 336 h; for pest or weed control at 125 g/ha: 125 g ai/ha; for pest or weed control at 500 g/ha: 500 g ai/ha
Procedure, shortened: (§3)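 Pre: seeds sown, then sprayed. Post: 1–4-leaf plants (2–18 cm) sprayed at the same time. Paddy: flooded, treated at 2-leaf stage. Formulation: non-phytotoxic solvent with surfactant. Greenhouse 13–15 days; visual 0–100 score relative to controls.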

[2] = tested on: small flower umbrella sedge; experiment: Test B flooded paddy test; format: in vivo, Cyperus difformis; settings: Cyperus difformis, 336 h, 1000 g ai/ha, scale 0 to 100 (0 no effect, 100 complete control), read-out: Sedge, Umbrella plant response rating
Procedure, shortened: as §2

blackgrass = experiment: Test B postemergence herbicide test; format: in vivo, Alopecurus myosuroides; settings: Alopecurus myosuroides, post-emergence, 336 h, postemergence, visual rating, scale 0 (no effect) to 100 (complete control), read-out: Blackgrass plant response rating
Procedure, shortened: as §2

wild oat = experiment: Test B postemergence herbicide test; format: in vivo, Avena fatua; settings: Avena fatua, post-emergence, 336 h, postemergence, read-out: Oat, Wild plant response rating
Procedure, shortened: (§4)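 Greenhouse test; postemergence application to plants at 1–4 leaves (2–18 cm); paddy species at 2 leaves; evaluated visually vs controls at 13–15 days; scale 0–100 (100 = complete control).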

corn = experiment: Test B pre-/postemergence herbicide test; format: in vivo, Zea mays; settings: Zea mays; for plant injury at 125 g/ha: 125 g ai/ha
Procedure, shortened: as §1

giant foxtail = experiment: Test B pre-/postemergence herbicide test; format: in vivo, Setaria faberi; settings: Setaria faberi, 336 h; for pest or weed control at 125 g/ha: 125 g ai/ha; for pest or weed control at 500 g/ha: 500 g ai/ha
Procedure, shortened: as §1

large crabgrass = experiment: Test B pre-/postemergence herbicide test; format: in vivo, Digitaria sanguinalis; settings: Digitaria sanguinalis; for pest or weed control at 125 g/ha: 125 g ai/ha; for pest or weed control at 500 g/ha: 500 g ai/ha
Procedure, shortened: as §1

pigweed = experiment: Test B pre-/postemergence herbicide test; format: in vivo, Amaranthus retroflexus; settings: Amaranthus retroflexus, post-emergence, 336 h, postemergence, read-out: Pigweed plant response rating
Procedure, shortened: as §1

barnyardgrass [3] = experiment: Test B pre-/postemergence herbicide test; format: in vivo, Echinochloa crus-galli; settings: Echinochloa crus-galli; for pest or weed control at 125 g/ha: 125 g ai/ha; for pest or weed control at 500 g/ha: 500 g ai/ha
Procedure, shortened: as §3

ducksalad = experiment: Test B flooded paddy test; format: in vivo, Heteranthera limosa; settings: Heteranthera limosa, 336 h, 1000 g ai/ha, scale 0 to 100 (0 no effect, 100 complete control), read-out: Ducksalad plant response rating
Procedure, shortened: as §2

wheat = experiment: Test B postemergence herbicide test; format: in vivo, Triticum aestivum; settings: Triticum aestivum, post-emergence, 336 h, postemergence, read-out: Wheat plant response rating
Procedure, shortened: as §4

[4] = 125 g ai/ha, visual rating, scale 0 (no effect) to 100 (complete control)
[5] = 500 g ai/ha, scale 0 to 100, 0 is no effect, 100 is complete control
[6] = post-emergence, postemergence, visual rating, scale 0 (no effect) to 100 (complete control), read-out: Barnyardgrass plant response rating

`CCOC(=O)c1ccc(F)c(NC(=O)C2CC(C(C)(C)C)=NN2CC)c1` (stereo not shown) [Compound 267, ethyl 3-[[[3-(1,1-dimethylethyl)-1-ethyl-4,5-dihydro-1H-pyrazol-5-yl]carbonyl]amino]-4-fluorobenzoate] gave a plant injury at 1000 g/ha (rice) of 70%, a pest or weed control at 125 g/ha (Surinam grass; post-emergence, postemergence, visual rating, scale 0 (no effect) to 100 (complete control), read-out: Surinam Grass plant response rating) of 30% and a pest or weed control at 500 g/ha (Surinam grass; post-emergence, postemergence, scale 0 to 100, 0 is no effect, 100 is complete control, read-out: Surinam Grass plant response rating) of 50%. For the same compound, the pest or weed control at 125 g/ha (Surinam grass; pre-emergence, 0 = no effect, 100 = complete control, read-out: Surinam Grass plant response rating (0 to 100 scale)) was 10%, the pest or weed control at 500 g/ha (Surinam grass; pre-emergence, visual rating, 0 = no effect, 100 = complete control, read-out: Plant response rating, Surinam Grass) was 50% and the pest or weed control at 125 g/ha (velvetleaf; post-emergence, postemergence, visual rating, scale 0 (no effect) to 100 (complete control), read-out: Velvetleaf plant response rating) was 50%. The pest or weed control at 500 g/ha (velvetleaf; post-emergence, postemergence, scale 0 to 100, 0 is no effect, 100 is complete control, read-out: Velvetleaf plant response rating) was 70%, the pest or weed control at 125 g/ha (velvetleaf; pre-emergence, 0 = no effect, 100 = complete control, read-out: Velvetleaf plant response rating (0 to 100 scale)) was 20% and the pest or weed control at 500 g/ha (velvetleaf; pre-emergence, visual rating, 0 = no effect, 100 = complete control, read-out: Plant response rating, Velvetleaf) was 50%. For the same compound, the pest or weed control at 1000 g/ha (barnyardgrass [1]) was 60%, the pest or weed control at 125 g/ha (morningglory; post-emergence, postemergence, visual rating, scale 0 (no effect) to 100 (complete control), read-out: Morningglory plant response rating) was 30% and the pest or weed control at 500 g/ha (morningglory; post-emergence, postemergence, scale 0 to 100, 0 is no effect, 100 is complete control, read-out: Morningglory plant response rating) was 40%. The pest or weed control at 125 g/ha (morningglory; pre-emergence, 0 = no effect, 100 = complete control, read-out: Morningglory plant response rating (0 to 100 scale)) was 20%, the pest or weed control at 500 g/ha (morningglory; pre-emergence, visual rating, 0 = no effect, 100 = complete control, read-out: Plant response rating, Morningglory) was 30% and the pest or weed control at 1000 g/ha [2] was 70%. For the same compound, the pest or weed control at 125 g/ha (blackgrass; 125 g ai/ha) was 20%, the pest or weed control at 500 g/ha (blackgrass; 500 g ai/ha) was 40% and the pest or weed control at 125 g/ha (wild oat; [4]) was 30%. For the same compound, the pest or weed control at 500 g/ha (wild oat; [5]) was 40%, the plant injury at 125 g/ha (corn; post-emergence, postemergence, visual rating, scale 0 (no effect) to 100 (complete control), read-out: Corn plant response rating) was 20% and the plant injury at 500 g/ha (corn; post-emergence, postemergence, 500 g ai/ha, scale 0 to 100, 0 is no effect, 100 is complete control, read-out: Corn plant response rating) was 40%. The plant injury at 125 g/ha (corn; pre-emergence, 0 = no effect, 100 = complete control, read-out: Corn plant response rating (0 to 100 scale)) was 0%, the Corn plant response rating (crop injury, 0 = no effect, 100 = complete kill) at 500 g/ha (corn; pre-emergence, 500 g ai/ha, visual rating, 0 = no effect, 100 = complete control) was 20% and the pest or weed control at 125 g/ha (giant foxtail; post-emergence, postemergence, visual rating, scale 0 (no effect) to 100 (complete control), read-out: Foxtail, Giant plant response rating) was 40%. It also gave a pest or weed control at 500 g/ha (giant foxtail; post-emergence, postemergence, scale 0 to 100, 0 is no effect, 100 is complete control, read-out: Foxtail, Giant plant response rating) of 50%, a pest or weed control at 125 g/ha (giant foxtail; pre-emergence, 0 = no effect, 100 = complete control, read-out: Foxtail, Giant plant response rating (0 to 100 scale)) of 30% and a pest or weed control at 500 g/ha (giant foxtail; pre-emergence, visual rating, 0 = no effect, 100 = complete control, read-out: Plant response rating, Foxtail, Giant) of 80%. For the same compound, the pest or weed control at 125 g/ha (large crabgrass; post-emergence, postemergence, visual rating, scale 0 (no effect) to 100 (complete control), read-out: Crabgrass, Large plant response rating) was 20%, the pest or weed control at 500 g/ha (large crabgrass; post-emergence, postemergence, scale 0 to 100, 0 is no effect, 100 is complete control, read-out: Crabgrass, Large plant response rating) was 40% and the pest or weed control at 125 g/ha (large crabgrass; pre-emergence, 0 = no effect, 100 = complete control, read-out: Crabgrass, Large plant response rating (0 to 100 scale)) was 40%. The pest or weed control at 500 g/ha (large crabgrass; pre-emergence, visual rating, 0 = no effect, 100 = complete control, read-out: Plant response rating, Crabgrass, Large) was 100%, the pest or weed control at 125 g/ha (pigweed; [4]) was 60% and the pest or weed control at 500 g/ha (pigweed; [5]) was 90%. The pest or weed control at 125 g/ha (barnyardgrass [3]; [6]) was 40%, the pest or weed control at 500 g/ha (barnyardgrass [3]; [6]) was 90% and the pest or weed control at 125 g/ha (barnyardgrass [3]; pre-emergence, 0 = no effect, 100 = complete control, read-out: Barnyardgrass plant response rating (0 to 100 scale)) was 20%. For the same compound, the pest or weed control at 500 g/ha (barnyardgrass [3]; pre-emergence, visual rating, 0 = no effect, 100 = complete control, read-out: Plant response rating, Barnyardgrass) was 70%, the pest or weed control at 1000 g/ha (ducksalad) was 0% and the plant injury at 125 g/ha (wheat; [4]) was 20%. It also gave a plant injury at 500 g/ha (wheat; [5]) of 30%.
